These results are taken from PMC10057977, “Use of In Vivo Imaging and Physiologically-Based Kinetic Modelling to Predict Hepatic Transporter Mediated Drug–Drug Interactions in Rats” (Pharmaceutics, 2023).

Read-outs that look alike come from different tables or passages of the source.

The target in one data set is rMrp2 (Rattus norvegicus, UniProt Q63120). The data set is classed as in vivo. On the set-up: from tissue; host or cells: liver of living male Wistar rats (Charles River Laboratories). The conditions noted are these: for Simple Effect Size (95% CI) kbh: gadoxetate biliary efflux, control − treatment, positive = decrease, site G2. The text has this: (§1) The tracer-kinetic model was developed to enable estimation of rate constants of hepatobiliary efflux from DCE-MRI profiles in individual animals. In this approach, the liver was assumed to consist of two compartments, the extracellular space (e) and the hepatocytes (h). Since water exchanges rapidly between those spaces, the change in relaxation rate was a weighted average (Equation (4)). (4) ΔR1(t)=r1,e·ve·ce(t)+r1,h·vh·ch(t)
Sequence of rMrp2 (Q63120 whole entry): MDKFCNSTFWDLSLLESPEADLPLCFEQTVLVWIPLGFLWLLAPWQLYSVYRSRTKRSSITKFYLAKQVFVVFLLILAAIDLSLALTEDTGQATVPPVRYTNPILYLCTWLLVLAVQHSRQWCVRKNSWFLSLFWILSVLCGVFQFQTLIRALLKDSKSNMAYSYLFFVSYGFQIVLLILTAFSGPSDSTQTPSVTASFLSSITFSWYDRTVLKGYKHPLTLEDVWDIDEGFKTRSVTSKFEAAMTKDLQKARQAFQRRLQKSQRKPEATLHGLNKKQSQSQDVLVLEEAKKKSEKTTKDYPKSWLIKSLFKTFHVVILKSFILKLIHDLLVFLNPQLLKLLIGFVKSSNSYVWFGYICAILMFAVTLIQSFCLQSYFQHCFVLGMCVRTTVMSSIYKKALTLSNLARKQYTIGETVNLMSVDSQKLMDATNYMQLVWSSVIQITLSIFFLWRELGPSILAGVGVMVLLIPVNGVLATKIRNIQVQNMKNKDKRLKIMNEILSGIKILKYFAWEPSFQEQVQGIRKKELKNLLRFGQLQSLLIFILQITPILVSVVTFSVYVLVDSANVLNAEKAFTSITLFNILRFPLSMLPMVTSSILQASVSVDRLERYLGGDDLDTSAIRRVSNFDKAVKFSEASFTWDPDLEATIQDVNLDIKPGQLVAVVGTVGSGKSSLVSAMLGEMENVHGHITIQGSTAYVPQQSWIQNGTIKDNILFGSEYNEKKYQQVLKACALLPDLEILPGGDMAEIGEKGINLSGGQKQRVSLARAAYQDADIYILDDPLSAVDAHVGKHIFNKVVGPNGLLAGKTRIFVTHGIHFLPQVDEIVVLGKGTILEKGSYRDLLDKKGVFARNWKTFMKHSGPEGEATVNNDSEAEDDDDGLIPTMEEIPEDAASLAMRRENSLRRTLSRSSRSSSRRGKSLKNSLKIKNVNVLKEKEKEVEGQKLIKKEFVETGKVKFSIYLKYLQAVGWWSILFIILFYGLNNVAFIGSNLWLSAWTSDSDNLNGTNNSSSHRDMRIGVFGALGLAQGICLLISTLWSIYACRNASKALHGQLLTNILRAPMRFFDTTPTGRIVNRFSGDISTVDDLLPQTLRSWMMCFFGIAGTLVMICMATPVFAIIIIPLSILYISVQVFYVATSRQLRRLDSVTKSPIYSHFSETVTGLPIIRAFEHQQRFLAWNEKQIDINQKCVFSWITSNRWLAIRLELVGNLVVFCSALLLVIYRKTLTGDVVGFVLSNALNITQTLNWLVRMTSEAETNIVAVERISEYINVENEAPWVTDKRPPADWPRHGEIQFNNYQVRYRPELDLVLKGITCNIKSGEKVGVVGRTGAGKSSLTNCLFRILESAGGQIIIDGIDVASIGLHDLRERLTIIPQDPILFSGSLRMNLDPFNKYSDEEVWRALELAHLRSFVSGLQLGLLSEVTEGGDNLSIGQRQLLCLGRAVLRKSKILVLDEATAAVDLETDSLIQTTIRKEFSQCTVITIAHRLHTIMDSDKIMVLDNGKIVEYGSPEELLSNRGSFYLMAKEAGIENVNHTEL
(§2) The proportionality constant, r1,τ [L⋅mmol^−1⋅s^−1] , is the relaxivity of the contrast agent for the compartment τ (extracellular space, e or hepatocytes, h) at the respective field strength, while vτ [mL/mL tissue] is the volume fraction of the compartment τ . Previously measured ex vivo r1,tau values for gadoxetate were used in this work, as per. The underlying assumptions of the PBPK and tracer-kinetic models, relating to physiological volumes and perfusion, are consistent, despite different parameterizations according to the purpose of each model. For example, Vliv,extr in the PBPK model is defined as an absolute volume (units = L; sum of liver plasma and interstitial volumes), while in the tracer-kinetic model, ve is a volume fraction (dimensionless), defined as Vliv,extr/Vliver , where Vliver is the total liver volume. While some analogy can be drawn between CLactive […], and CLbiliary and kbh, the interpretations are distinct. For example, the operating concentrations of the PBPK parameters CLactive […], and CLbiliary are the unbound concentrations of gadoxetate in plasma and hepatocytes, while the tracer-kinetic model is parameterized with respect to the total concentration of gadoxetate.
(§3) Since ce(t) is the input to the hepatocytes, and no backflux from hepatocytes to extracellular space is assumed, Equation (5) can be derived. (5) vh·ch(t)=e^−t/Th∗khe·ce(t) where Th is the mean transit time of gadoxetate in the hepatocytes [min] , and * is convolution. The extracellular space is assumed to be in equilibrium with the blood pool and therefore the concentration ce(t) is proportional to the concentration cp(t) in the plasma of the feeding artery, i.e., ce(t) = (1 − E)·cp(t), where E is the extraction fraction of gadoxetate in the liver. Combining this assumption with Equations (4) and (5), and using (1 − E)·khe = E·Fp, with Fp being the apparent plasma flow into the liver [mL/min/mL tissue volume] , gives Equation (6), the operational equation for gadoxetate DCE-MRI in the liver. (6) ΔR1(t)=(1−E)·ve·r1,p·cp(t)+E·Fp·r1,h ·e^−t/Th ∗cp(t)
(§4) The rate constants were derived as K^trans = E·Fp, khe = E·Fp/(1 − E), and kbh = vh/Th, with a literature value for vh. The plasma concentrations cp(t) were not reliably measured in small animals due to the small diameter of the main vessels compared to the resolution of the measurement. […] Therefore, the source term cp(t) was derived from a two-compartment pharmacokinetic model for gadoxetate (see Supplementary Material, Section S5), and a step function as input in the blood compartment. The parameters kbh and khe were fitted to the liver data using a model implementation in Python. For each rat considered in these studies, the rate constants K^trans, khe, and kbh were calculated, in both control and inhibitory phases. The rate constants of the control and inhibitory phases were compared via calculation of simple (unstandardized) effect sizes (i.e., simple effect size = μcontrol − μtreatment, where μ is the mean average of all subjects) at the 95% confidence level. Statistical significance was assessed through a two-sided paired t-test, with p < 0.05 considered significant.

A further data set deals with OATP1B1. Also on record: method as in earlier work. The conditions noted are these: in vitro; bracket not explained in the table; ref 30,43-55 and in-house data from Merck & Co.; cited from earlier work.
For the next data set, the system named is MRP2. The conditions noted are these: in vitro; bracket not explained in the table; ref 30,43-55 and in-house data from Merck & Co.; cited from earlier work.
A further data set has as its target T1, rOatp1b (Rattus norvegicus, UniProt Q9QZX8).
T1 construct: from tissue; host or cells: liver of living male Wistar rats (Charles River Laboratories)
T1 sequence (Q9QZX8 1-687): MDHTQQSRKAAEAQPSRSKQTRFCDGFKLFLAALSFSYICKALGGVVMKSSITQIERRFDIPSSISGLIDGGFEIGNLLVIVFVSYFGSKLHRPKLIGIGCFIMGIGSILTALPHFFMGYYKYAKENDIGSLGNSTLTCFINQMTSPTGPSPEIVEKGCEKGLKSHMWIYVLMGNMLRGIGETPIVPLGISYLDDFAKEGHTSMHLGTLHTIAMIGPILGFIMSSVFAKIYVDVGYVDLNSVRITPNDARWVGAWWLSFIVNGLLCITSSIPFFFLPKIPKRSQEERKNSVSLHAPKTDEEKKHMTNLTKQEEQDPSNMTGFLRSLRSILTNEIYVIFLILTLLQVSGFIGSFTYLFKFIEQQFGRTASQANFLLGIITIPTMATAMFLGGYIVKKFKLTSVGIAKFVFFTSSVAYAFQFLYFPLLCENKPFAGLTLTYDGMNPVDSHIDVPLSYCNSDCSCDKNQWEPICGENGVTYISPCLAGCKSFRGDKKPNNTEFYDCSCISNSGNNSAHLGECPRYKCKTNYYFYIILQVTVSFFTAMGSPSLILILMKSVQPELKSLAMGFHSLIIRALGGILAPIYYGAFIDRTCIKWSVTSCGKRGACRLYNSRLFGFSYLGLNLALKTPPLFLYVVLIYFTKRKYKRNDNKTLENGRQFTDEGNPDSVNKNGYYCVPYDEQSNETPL
The data set is classed as in vivo. The following applies: for Simple Effect Size (95% CI) K^trans: gadoxetate hepatic plasma clearance; for Simple Effect Size (95% CI) K^trans / Simple Effect Size (95% CI) khe: control − treatment, positive = decrease; for Simple Effect Size (95% CI) khe: gadoxetate hepatic uptake.
Text: as §1, §2, §3
as §4, with “The rate constants of the control and inhibitory phases were compared via calculation of simple (unstandardized) effect sizes (i.e., simple effect size = μcontrol − μtreatment, where μ is the mean average of all subjects) at the 95% confidence level.” left out

Another data set concerns OATP1B3. Also on record: method as in earlier work. The conditions noted are these: in vitro; ref 30,43-55 and in-house data from Merck & Co.; cited from earlier work.
[1] abbreviates: pioglitazone 0.4 mg/kg iv, site E.

By IC50 is commonly meant the concentration needed to halve the response being measured. For `C=C[C@@H]1C[C@]1(NC(=O)[C@@H]1C[C@@H](Oc2ncc(OC)c3ccc(Cl)cc23)CN1C(=O)[C@@H](NC(=O)OC(C)(C)C)C(C)(C)C)C(=O)NS(=O)(=O)C1CC1` [Asunaprevir], the “decrease in gadoxetate kbh” value at rMrp2 (rat, asunaprevir 5 mg/kg iv) amounted to 31%. Besides, the values for the IC50 in the data set on OATP1B1, in the data set with MRP2 and in the data set with OATP1B3 were 0.55 µM, 4 µM and 0.65 µM, respectively. Besides, the “Simple Effect Size (95% CI) K^trans” value on rOatp1b (asunaprevir 5 mg/kg iv, site E) is 0.24 (−0.01, 0.48) mL/min/mL liver. On rOatp1b (asunaprevir 5 mg/kg iv, site E), the “Simple Effect Size (95% CI) khe” value was 2.34 (−0.92, 5.60) mL/min/mL liver.

Regarding `COc1ccccc1Oc1c(NS(=O)(=O)c2ccc(C(C)(C)C)cc2)nc(-c2ncccn2)nc1OCCO` [Bosentan], on rMrp2 (bosentan 4–6 mg/kg iv), the “Simple Effect Size (95% CI) kbh” value was 0.02 (−0.02, 0.07) mL/min/mL liver. Moreover, the IC50 in the data set on OATP1B1 was 6.6 µM; in the data set with MRP2 it was above 100 µM; with OATP1B3 it was 5.2 µM. For the same compound, the “Simple Effect Size (95% CI) K^trans” value on rOatp1b (bosentan 2 mg/kg iv, site G1, subjects 3, 4, 6 excluded) is recorded as 0.28 (−0.32, 0.88) mL/min/mL liver; at rOatp1b (bosentan 4–6 mg/kg iv, site G2), 0.07 (−0.12, 0.26) mL/min/mL liver. Besides, the “Simple Effect Size (95% CI) khe” value at rOatp1b (bosentan 2 mg/kg iv, site G1, subjects 3, 4, 6 excluded, khe physiologically implausible) was −54.22 (−197.97, 89.53) mL/min/mL liver; at rOatp1b (bosentan 4–6 mg/kg iv, site G2), 1.07 (−1.13, 3.26) mL/min/mL liver.

In the case of `CCc1ccc(CCOc2ccc(CC3SC(=O)NC3=O)cc2)nc1` (stereo not shown) [Pioglitazone], the “decrease in gadoxetate kbh” value at rMrp2 (rat, pioglitazone 0.4 mg/kg iv) stood at 19%. Besides, the IC50 was above 133 µM in the data set with MRP2 and 3.41 µM with OATP1B3. The “Simple Effect Size (95% CI) K^trans” value on rOatp1b (setting [1]) is reported as 0.13 (−0.05, 0.32) mL/min/mL liver. For the same compound, at rOatp1b (setting [1]), the “Simple Effect Size (95% CI) khe” value is listed as 1.21 (−0.10, 2.51) mL/min/mL liver.

By Ki is commonly meant a measure of affinity in units of concentration, obtained from inhibition or displacement. `CO[C@H]1/C=C/O[C@@]2(C)Oc3c(C)c(O)c4c(O)c(c(/C=N/N5CCN(C)CC5)c(O)c4c3C2=O)NC(=O)/C(C)=C\C=C\[C@H](C)[C@H](O)[C@@H](C)[C@@H](O)[C@@H](C)[C@H](OC(C)=O)[C@@H]1C` [Rifampicin]: at rMrp2 (** p < 0.01, rifampicin 2 mg/kg iv), the “Simple Effect Size (95% CI) kbh” value stood at 0.07 mL/min/mL liver. In addition, the IC50 in the data set with OATP1B1 was 1.9 µM; in the data set on MRP2, 55 µM; with OATP1B3, 0.11 µM. Moreover, the figures for the Ki in the data set with OATP1B1 and in the data set on MRP2 were 0.67 µM and 24.3 µM, respectively. Besides, the “Simple Effect Size (95% CI) khe” value on rOatp1b (* p < 0.05, rifampicin 2 mg/kg iv, site G2) turned out to be 7.20 mL/min/mL liver.

Regarding `CCOc1ccc(C[C@@H](CN(CCN(CC(=O)[O-])CC(=O)[O-])CC(=O)[O-])N(CC(=O)[O-])CC(=O)[O-])cc1.[Gd+3].[H+].[H+]` [gadoxetate, Gadoxetate], at rMrp2 (rat, in vivo), the “kbh, new value in unified units” value came out at 1.19 mL/min and the “kbh, original value” stood at 0.14 mL/ min/ mL tissue volume. In addition, at rOatp1b (rat, in vivo), the “hepatic extraction ratio (E)” value is above 0.95; the “khe, new value in unified units” value was 11.1 mL/min; the “khe, original value” is listed as 1.31 mL/ min/ mL tissue volume.
